From patent publication US20140363384A1, “COMBINATION THERAPY FOR COPD” (CHIESI FARMACEUTICI S.p.A., priority 2009, published 2014)

Columns and labels:
[1] = Analysis of impurities/degradation products by HPLC/UV VIS; settings: for Total impurities % Vs active ingredient: stored 3 months at 25° C./60% relative humidity
[2] = Stability of single, double and triple combination aerosol solution formulations: residual content of active ingredient in the can; format: physicochemical; settings: for Residual % amount ± standard deviation: stored 3 months at 25° C./60% relative humidity, versus amount at time 0
Experimental: +25° C./60% relative humidity (accelerated storage conditions);
+30° C./65% relative humidity; and
+40° C./75% relative humidity.

[3] = triple combination FF+GLY+BDP, versus initial amount of the active ingredient
[4] = triple combination FF+GLY+BDP aerosol solution
[5] = triple combination, +5° C. to +40° C./75% RH, 1, 2 and 3 months

SMILES	Total impurities % Vs active ingredient ([1]; double combination FF + BDP) [%]	Total impurities % Vs active ingredient ([1]; double combination FF + Gly) [%]	level of degradation products (HPLC/UV) ([1]; formulations comprising both formoterol and GLY)	Total impurities % Vs active ingredient [1, 3] [%]	Residual % amount ± standard deviation ([2]; double combination FF + Gly) [%]	can content versus time and temperature of storage ([2]; double combination FF+GLY, all tested storage conditions)	can content versus time and temperature of storage ([2]; single agent GLY formulation in the presence of 1M HCl)	can content versus time and temperature of storage ([2]; single agent GLY formulation, acid omitted)	Residual % amount ± standard deviation [2, 4] [%]	can content versus time and temperature of storage [2, 5]	Residual % amount ± standard deviation ([2]; double combination FF + BDP) [%]
COc1ccc(C[C@@H](C)NC[C@H](O)c2ccc(O)c(NC=O)c2)cc1.COc1ccc(C[C@@H](C)NC[C@H](O)c2ccc(O)c(NC=O)c2)cc1.O=C(O)/C=C/C(=O)O [FF, formoterol fumarate]	0.80	1.3	high levels of degradation products	1.1	–	–	–	–	–	–	–
C[N+]1(C)CCC(OC(=O)C(O)(c2ccccc2)C2CCCC2)C1.[Cl-] (stereo not drawn) [Gly, 3-[(cyclopentylhydroxyphenyl-acetyl)oxy]-1,1-dimethylpyrrolidinium chloride]	–	–	–	–	96.0 ± 0.1	remains stable under all of the tested conditions	maintain a constant content	highly dependent on time and temperature of storage	96.4 ± 1.3	not significantly affected by time and temperature	–
CCC(=O)OCC(=O)[C@@]1(OC(=O)CC)[C@@H](C)C[C@H]2[C@@H]3CCC4=CC(=O)C=C[C@]4(C)[C@@]3(Cl)[C@@H](O)C[C@@]21C [BDP, beclometasone dipropionate]	0.20	–	–	0.21	–	–	–	–	94.5 ± 0.3	not significantly affected by time and temperature	98.9 ± 0.6
